Source: patent US20210220408A1, “ARYL HYDROCARBON RECEPTOR ANTAGONISTS AND METHODS OF USE” (Magenta Therapeutics Inc., priority 2018, published 2021)

Each compound was assayed against T1, aryl hydrocarbon receptor (AHR) (Homo sapiens, UniProt P35869) (assay: DRE-Luciferase reporter high-throughput screen (AHR antagonist, VAF347-activated)).
T1 sequence (P35869 11-848): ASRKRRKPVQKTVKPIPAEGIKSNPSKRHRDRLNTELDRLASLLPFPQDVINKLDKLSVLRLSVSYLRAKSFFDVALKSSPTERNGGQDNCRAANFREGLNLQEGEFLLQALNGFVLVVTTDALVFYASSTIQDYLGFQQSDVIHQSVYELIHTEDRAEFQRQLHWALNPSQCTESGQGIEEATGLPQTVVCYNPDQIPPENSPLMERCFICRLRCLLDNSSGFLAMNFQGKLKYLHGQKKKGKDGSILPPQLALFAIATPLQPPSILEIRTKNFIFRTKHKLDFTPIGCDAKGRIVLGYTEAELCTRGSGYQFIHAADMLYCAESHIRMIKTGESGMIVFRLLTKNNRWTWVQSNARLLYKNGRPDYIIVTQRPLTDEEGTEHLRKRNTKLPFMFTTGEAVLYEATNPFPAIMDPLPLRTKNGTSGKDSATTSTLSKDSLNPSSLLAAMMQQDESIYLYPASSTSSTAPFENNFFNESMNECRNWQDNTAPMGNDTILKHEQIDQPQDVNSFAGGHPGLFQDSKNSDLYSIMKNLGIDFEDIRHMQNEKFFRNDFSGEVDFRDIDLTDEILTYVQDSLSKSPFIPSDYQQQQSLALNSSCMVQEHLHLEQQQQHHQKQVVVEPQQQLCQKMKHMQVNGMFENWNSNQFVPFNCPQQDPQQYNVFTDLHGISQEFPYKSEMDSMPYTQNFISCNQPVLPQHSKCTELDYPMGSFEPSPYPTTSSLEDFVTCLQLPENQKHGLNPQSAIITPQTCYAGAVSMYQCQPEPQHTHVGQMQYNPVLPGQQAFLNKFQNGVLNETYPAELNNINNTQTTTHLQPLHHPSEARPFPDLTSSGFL

Compound | IC50
COC(=O)c1ccc(NC(=O)CCn2nc(C)cc2C)s1 [108A] | > 2 µM
COc1cccc(-c2nn3c(-c4ccccn4)nnc3s2)c1 [98A] | 1 to 2 µM
c1cncc(-c2nnc3sc(-c4csc5c4CCCC5)nn23)c1 [99A] | 1 to 2 µM
Cc1cc(C)c2cc(C#N)c(Oc3cccnc3)nc2c1 [158A] | 1 to 2 µM
N#Cc1ccccc1OCc1cc(-c2cccs2)on1 [127A] | 1 to 2 µM
CN(C)c1ccc(-c2nnc(-c3cccs3)o2)cc1 [compound 149] | 0.5 to 1 µM
CCN(CC)c1ccc(NC(=O)c2cccnc2O)cc1 [12A] | 1 to 2 µM
CC(=O)Oc1ccc2c(=O)c(-c3cnn(-c4ccccc4)c3)coc2c1C [56B] | 0.5 to 1 µM
COc1ccccc1NC(=O)c1sc2nc(N3CCOCC3)c3c(c2c1N)CCCC3 [52A] | 1 to 2 µM
Cc1nccc(-c2cc(-c3ccc(Cl)cc3Cl)no2)n1 [131A] | 1 to 2 µM
Cc1cc(N(C)C)nc(N2CCN(C(=O)Nc3cccc(F)c3)CC2)n1 [79A] | 1 to 2 µM
COc1ccc(C(=O)Nc2ccc(C)c(F)c2)cc1 [2B] | 1 to 2 µM
Clc1ccc(-c2noc(-c3csnn3)n2)cc1 [84B] | 0.5 to 1 µM
COc1ccc(C(=O)Nc2nc3c(s2)CCCC3)cc1 [171A] | 1 to 2 µM
Cc1cc(-c2ccccc2)nc2c1/C(=N\O)CC(C)(C)C2 [104B] | 0.5 to 1 µM
Clc1ccc2nnn(OCc3cn4cc(Cl)ccc4n3)c2c1 [116A] | > 2 µM
COc1ccc2cc(C)c3nn(CCNC(=O)c4sc(C)nc4C)c(=O)n3c2c1 [191A] | > 2 µM
CSc1ccccc1NC(=O)c1ccc(-c2ccccc2)cc1 [4B] | > 2 µM
Cn1c(CCC(=O)OCC(=O)N2c3ccccc3CCc3ccccc32)nc2ccccc2c1=O [127B] | > 2 µM
COc1cccc2c1cc1c(O)nnc(C)n12 [185A] | > 2 µM
Clc1ccc(-c2ncc(-c3cc[nH]n3)s2)cc1 [compound 64] | 0.5 to 1 µM
Cc1nn(C(=O)Nc2ccccc2)c(C)c1Oc1ccccc1 [22A] | 1 to 2 µM
Clc1ccc(Nc2nnc(-c3ccncc3)s2)cc1 [98B] | 1 to 2 µM
COc1ccc(C(=O)Nc2cccc(F)c2)cc1C [1B] | 1 to 2 µM
Cc1nc(-c2ccc(OC3=CC=C4N=NC(C(F)(F)F)N4N3)cc2)no1 (stereo not shown) [124A] | > 2 µM
CCC(C)C(=O)Nc1ccc(-c2nnc(-c3ccccc3C)o2)cc1 (stereo not shown) [83B] | 0.5 to 1 µM
O=C(Nc1nc(-c2ccc(F)cc2)n[nH]1)c1cc(F)cc(F)c1 [14B] | 0.5 to 1 µM

Compound | IC50
Cc1nc(-c2ccccc2F)sc1C(=O)NCc1ccccn1 [63A] | > 2 µM
Cc1cc(Cl)ccc1OCc1cn2cccnc2n1 [120A] | 1 to 2 µM
CCOC(=O)c1c(C)[nH]c(-c2cn3ccccc3n2)c1C [compound 102] | 0.2 to 0.5 µM
c1ccc(N2CCN(c3nc(N4CCCCC4)nc4nccnc34)CC2)cc1 [75A] | 1 to 2 µM
Clc1ccccc1CNc1ccc(-c2ccccc2)nn1 [87A] | 1 to 2 µM
CN(Cc1ccsc1)c1nc2ccccn2c1[N+](=O)[O-] [68B] | 1 to 2 µM
N#Cc1c(NC(=O)Nc2ccc(Cl)c(Cl)c2)sc2c1C1CCN2CC1 [192A] | 1 to 2 µM
CCCCc1ccc(C(=O)Nc2ccccc2O)cc1 [8A] | > 2 µM
Cc1ccc2nc(C3=C(N)N(CC(C)C)CC3=O)[nH]c2c1 [113A] | 1 to 2 µM
CCc1nnc(-c2ccc(NC(=O)c3ccccc3OC)cc2)o1 [3A] | 1 to 2 µM
Cn1c(Cl)cnc1-c1cc(=O)c2cc(Cl)ccc2o1 [53B] | 1 to 2 µM
C1=C(c2ccccc2)CCN(c2ccc3nnnn3n2)C1 [compound 110] | 0.5 to 1 µM
CC(=O)c1sc(-c2ccc(Oc3ncnc4sccc34)cc2)nc1C [64A] | 1 to 2 µM
N#Cc1c(N)nc2c(oc3ccccc32)c1-c1ccccc1 [123B] | 1 to 2 µM
CCCn1cnc(-c2nc(C(=O)Nc3cc(C)ccc3C)c3ccccn23)c1 [46A] | 1 to 2 µM
N#Cc1c(N)c(-c2ccc(F)cc2)cn2c1nc1ccccc12 [120B] | 0.5 to 1 µM
Ic1ccc(-c2cnc(-c3ccncc3)o2)cc1 [76B] | 0.2 to 0.5 µM
Cc1noc(C)c1C(=O)Nc1ccc(-c2ccccc2)cc1 [13B] | 0.5 to 1 µM
Cc1ccc2[nH]c(SCc3ccccc3C)nc2c1 [64B] | 0.5 to 1 µM
N#Cc1cccnc1Oc1ccc(NC(=O)c2ccc(F)cc2F)cc1 [5A] | 1 to 2 µM
Cc1cc(C)c2c(NCc3ccccc3F)[nH]nc2n1 [122A] | 1 to 2 µM
O=C(Nc1cccnc1N1CCN(c2ncc(C(F)(F)F)cc2Cl)CC1)c1ccc(F)cc1 [81A] | 1 to 2 µM
CCSc1ccc(-c2ccc(-n3cccn3)cc2)nn1 [91B] | 1 to 2 µM
Cn1ccc(NC(=O)c2cc(-c3cccc(Cl)c3)[nH]n2)n1 [31A] | > 2 µM
Clc1ccc2nnn(OCc3coc(-c4cccs4)n3)c2c1 [132A] | 1 to 2 µM
CNC(=O)c1ccc(-c2cc(C(F)(F)F)nn2C)s1 [60B] | 1 to 2 µM
COc1cccc(-c2cc(C(F)(F)F)nc(-n3cc(Cl)cn3)n2)c1 [86A] | 1 to 2 µM

Compound | IC50
Cc1cccn2c(=O)c3cc(C(=O)NCc4ccccc4Cl)sc3nc12 [125B] | 0.2 to 0.5 µM
O=c1cc(CSc2nc3cc(Cl)ccc3o2)nc2sccn12 [112B] | 0.2 to 0.5 µM
COc1ccc(-c2noc(-c3cscn3)n2)cn1 [137A] | > 2 µM
CCn1c(-c2csc(N(C(C)=O)c3ccccc3)n2)nc2ccccc21 [39B] | 1 to 2 µM
O=[N+]([O-])c1cc(C(F)(F)F)ccc1Oc1ccc(-c2noc(-c3ccccc3F)n2)cc1 [compound 157] | 0.5 to 1 µM
O=C(COc1ccccc1-c1nnc(-c2ccccc2)o1)NCc1ccccn1 [139A] | 1 to 2 µM
COc1ccc(Cl)cc1C(=O)NCc1ccc(Cl)cc1 [89B] | 1 to 2 µM
COc1ccc(-c2cc(=O)c3cc(OC(=O)C(C)(C)C)ccc3o2)cc1 [110B] | 0.2 to 0.5 µM
CN(C)C(=O)c1ccc(-c2cc(C(F)(F)F)nn2C)s1 [59B] | 0.5 to 1 µM
Fc1ccccc1OCc1cnn(-c2ccccc2)c1 [54B] | 0.5 to 1 µM
O=C(Nc1ccc(-c2cnco2)cc1)c1ccc(F)cc1F [3B] | 0.2 to 0.5 µM
O=C(Nc1nnc(-c2ccc(F)cc2)[nH]1)c1ccc(S(=O)(=O)C(F)F)cc1 [27A] | 1 to 2 µM
N#Cc1ccc(N2CCN(C(=O)Nc3cccc(C(F)(F)F)c3)CC2)nc1 [80A] | 1 to 2 µM
O=C(Nc1ccc(Cl)cc1)c1ccc(-c2ccccn2)s1 [15B] | 0.5 to 1 µM
CC(C)(C)c1cc(C(=O)Nc2ccc3c(c2)CCN3S(C)(=O)=O)nc2ncnn12 [compound 48] | < 0.2 µM
CN(c1nnc(NC(=O)Nc2ccccc2C(F)(F)F)s1)C1CCCCC1 [145A] | 1 to 2 µM
CC(=O)Nc1ccc(NC(=O)c2cccc3c2OCC3)cc1 [43A] | 1 to 2 µM
Cc1cc(C)c2cc(C(=O)N(C)Cc3ccc(C)o3)[nH]c2c1 [62B] | 0.5 to 1 µM
O=S(=O)(Cc1cccc(F)c1)c1ccc2ccccc2c1 [93B] | 0.2 to 0.5 µM
COc1ccc(NC(=O)CSc2nnc(-c3sc4nc(C)cc(C)c4c3N)o2)cc1 [82B] | 0.5 to 1 µM
COc1ccc(Nc2cc(C)nc(-c3ccccc3O)n2)cc1 [47B] | 1 to 2 µM
CCOc1ccc(-n2nc3ccc(NC(=O)COc4ccccc4Cl)cc3n2)cc1 [73B] | 0.5 to 1 µM
O=C(CN1CCCCCC1)Nc1sc2c(c1C(=O)Nc1ccc(Br)cc1)CCC2 [42A] | 1 to 2 µM
Clc1ccc(/C=N/Nc2nc3cc(Cl)ccc3[nH]2)cc1 [83A] | > 2 µM
C/C(=N\NC(=O)c1ccco1)c1ccc(Cl)c(Cl)c1 [43B] | > 2 µM
